Experimental data from the NIST ThermoML archive (doi:10.1021/je049762q).

Assay: molar heat capacity at constant pressure
Conditions: 101.33 kPa, Crystal

Clc1cc(Cl)cc(Cl)c1 [1,3,5-trichlorobenzene]
Conditions	molar heat capacity at constant pressure [J/K/mol]
171.08 K	107.71
172.15 K	108.11
174.44 K	109.1
174.82 K	109.23
177.47 K	110.35
177.76 K	110.52
180 K	111.41
180.1 K	111.45
181.06 K	111.92
182.71 K	112.52
184.34 K	113.28
185.3 K	113.6
187.58 K	114.63
187.87 K	114.66
190 K	115.57
190.43 K	115.78
190.81 K	115.98
192.97 K	116.82
194.01 K	117.3
195.49 K	117.83
197.19 K	118.6
198 K	118.86
200 K	119.79
200.35 K	119.94
202.96 K	120.92
203.48 K	121.26
205.42 K	121.91
206.6 K	122.49
207.87 K	122.92
209.7 K	123.75
210 K	123.84
210.3 K	123.89
212.71 K	124.89
212.77 K	125.04
215.12 K	125.93
215.83 K	126.21
217.51 K	126.8
218.86 K	127.47
219.88 K	127.77
220 K	127.82
221.88 K	128.7
222.25 K	128.72
224.6 K	129.66
224.87 K	129.89
226.94 K	130.61
227.85 K	131.11
229.27 K	131.59
230 K	131.95
230.81 K	132.32
231.58 K	132.53
233.76 K	133.48
236.18 K	134.38
236.69 K	134.73
238.46 K	135.33
239.6 K	135.87
240 K	136.02
240.73 K	136.28
242.5 K	137.03
242.99 K	137.17
245.24 K	138.06
245.38 K	138.2
247.48 K	138.95
248.24 K	139.34
249.71 K	139.83
250 K	139.96
251.09 K	140.46
251.93 K	140.7
253.93 K	141.6
256.34 K	142.49
256.76 K	142.74
258.53 K	143.37
259.57 K	143.79
260 K	143.95
260.71 K	144.19
262.36 K	144.92
262.88 K	145.05
265.05 K	145.93
265.15 K	146.04
267.2 K	146.81
267.91 K	147.2
269.34 K	147.62
270 K	147.9
270.67 K	148.17
